Structures are written as SMILES. Read-outs that look alike come from different tables or passages of the source.

As usually defined, the IC50 is the concentration needed to halve the response being measured.

One test has as its target KPC-2 (K. pneumoniae) (Klebsiella pneumoniae, UniProt Q9F663). Put plainly: biochemical.
For another test, the target named is AmpC (P. aeruginosa) (Pseudomonas aeruginosa (strain ATCC 15692 / DSM 22644 / CIP 104116 / JCM 14847 / LMG 12228 / 1C / PRS 101 / PAO1), UniProt P24735). Put plainly: biochemical. The method, then:
The Class C enzyme activities were measured in the presence of the test inhibitor in spectrophotometric assay against the commercially available substrate, nitrocefin. The enzyme AmpC (P. aeruginosa.), and the substrate, were dissolved in 100 mM KH2PO4 buffer (pH 7). The buffer also contains 0.005% BSA. The test inhibitor was dissolved in DMSO and diluted 1:20 in the assay, resulting in a final concentration range of 50 μM to 0.0002 μM. In a 96-well microplate, the test inhibitor was incubated with the beta-lactamase enzyme for 40 minutes at ambient temperature, the substrate solution was added, and the incubation continued for another 40 minutes. […] The IC50 value was determined from semi logarithmic plots of enzyme inhibition versus inhibitor concentration, with a curve generated using a 4-parameter fit.

Where [1] appears, read: Table 3, read-out: K.p. KPC-2 IC50.
[2] abbreviates: Table 3, read-out: P.a. AmpC IC50.

Sequence of KPC-2 (K. pneumoniae) (Q9F663 25-293 limits assumed): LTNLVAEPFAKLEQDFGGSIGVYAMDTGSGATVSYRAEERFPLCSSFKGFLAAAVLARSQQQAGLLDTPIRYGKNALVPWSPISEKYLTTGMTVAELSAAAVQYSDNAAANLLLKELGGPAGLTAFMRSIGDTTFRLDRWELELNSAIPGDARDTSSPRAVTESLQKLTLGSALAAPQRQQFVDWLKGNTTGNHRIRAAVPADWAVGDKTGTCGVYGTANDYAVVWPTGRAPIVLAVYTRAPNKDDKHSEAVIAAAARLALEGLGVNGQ
Sequence of AmpC (P. aeruginosa) (P24735 27-397): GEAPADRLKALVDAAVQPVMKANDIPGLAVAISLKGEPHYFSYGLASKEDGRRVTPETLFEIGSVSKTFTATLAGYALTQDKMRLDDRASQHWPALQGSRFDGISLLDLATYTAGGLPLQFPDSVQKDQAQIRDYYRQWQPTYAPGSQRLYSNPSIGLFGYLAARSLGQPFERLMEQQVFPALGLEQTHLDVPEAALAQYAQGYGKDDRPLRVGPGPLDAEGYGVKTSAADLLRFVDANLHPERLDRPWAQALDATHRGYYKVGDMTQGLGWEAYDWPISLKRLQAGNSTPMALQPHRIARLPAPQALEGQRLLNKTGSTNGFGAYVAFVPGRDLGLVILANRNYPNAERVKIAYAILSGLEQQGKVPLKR

`CNCc1ccc(NC(=O)[C@@H]2CC[C@@H]3CN2C(=O)N3OS(=O)(=O)O)cc1` [Example 60]: the IC50 at KPC-2 (K. pneumoniae) (setting [1]) was found to be 56 nM; on AmpC (P. aeruginosa) (setting [2]) it was 18 nM.
Turning to `CC1(COC(=O)[C@@H]2CC[C@@H]3CN2C(=O)N3OS(=O)(=O)O)CCNCC1` [Example 113], the figures for the 50% inhibitory concentration (IC50) on KPC-2 (K. pneumoniae) (setting [1]) and at AmpC (P. aeruginosa) (setting [2]) were 8 nM and 36 nM, respectively.
On to `O=C(NC(CO)C1CCNCC1)[C@@H]1CC[C@@H]2CN1C(=O)N2OS(=O)(=O)O` (stereo partly shown) [Example 41], for which the IC50 on KPC-2 (K. pneumoniae) (setting [1]) came to 320 nM; on AmpC (P. aeruginosa), 700 nM.
In the case of `O=C(O[C@H]1CCCNCC1)[C@@H]1CC[C@@H]2CN1C(=O)N2OS(=O)(=O)O` [Example 91], the IC50 at KPC-2 (K. pneumoniae) (setting [1]) was 6 nM; at AmpC (P. aeruginosa) (setting [2]) it was 83 nM.
Take `O=C(N[C@H]1CCNC[C@H]1F)[C@@H]1CC[C@@H]2CN1C(=O)N2OS(=O)(=O)O` [Example 15, (2S,5R)—N-[(3R,4S)-3-Fluoropiperidin-4-yl]-7-oxo-6-(sulfooxy)-1,6-diazabicyclo[3.2.1]octane-2-carboxamide]: the figures for the IC50 on KPC-2 (K. pneumoniae) (setting [1]) and on AmpC (P. aeruginosa) were 130 nM and 49 nM, respectively.
Take `O=C(N[C@H]1CCN(C2CCNCC2)C1=O)[C@@H]1CC[C@@H]2CN1C(=O)N2OS(=O)(=O)O` [Example 33]: the results for the IC50 at KPC-2 (K. pneumoniae) (setting [1]) and against AmpC (P. aeruginosa) were 21 nM and 620 nM, respectively.
As for `Nc1cccc(NC(=O)[C@@H]2CC[C@@H]3CN2C(=O)N3OS(=O)(=O)O)n1` [Example 74], the concentration for half-maximal inhibition (IC50) turned out to be 11 nM at KPC-2 (K. pneumoniae) (setting [1]) and 8 nM on AmpC (P. aeruginosa) (setting [2]).
On to `Cn1ccnc1NC(=O)[C@@H]1CC[C@@H]2CN1C(=O)N2OS(=O)(=O)O` [Example 86], for which the results for the half-inhibitory concentration (IC50) on KPC-2 (K. pneumoniae) (setting [1]) and at AmpC (P. aeruginosa) (setting [2]) were 135 nM and 240 nM, respectively.
As for `O=C(Nc1ccc(N2CCOCC2)cn1)[C@@H]1CC[C@@H]2CN1C(=O)N2OS(=O)(=O)O` [Example 81], the IC50 was 17 nM at KPC-2 (K. pneumoniae) (setting [1]) and 5 nM on AmpC (P. aeruginosa) (setting [2]).
For the compound `O=C(NCCC1CCNCC1)[C@@H]1CC[C@@H]2CN1C(=O)N2OS(=O)(=O)O` [Example 44], the concentration for half-maximal inhibition (IC50) amounted to 45 nM on KPC-2 (K. pneumoniae) (setting [1]) and 11 nM at AmpC (P. aeruginosa) (setting [2]).
Turning to `O=C(Nc1ccncn1)[C@@H]1CC[C@@H]2CN1C(=O)N2OS(=O)(=O)O` [Example 84], the IC50 amounted to 55 nM at KPC-2 (K. pneumoniae) (setting [1]) and 0.8 nM at AmpC (P. aeruginosa) (setting [2]).
For the compound `NCc1ccccc1NC(=O)[C@@H]1CC[C@@H]2CN1C(=O)N2OS(=O)(=O)O` [Example 59], the figures for the concentration for half-maximal inhibition (IC50) at KPC-2 (K. pneumoniae) (setting [1]) and on AmpC (P. aeruginosa) were 109 nM and 292 nM, respectively.
Take `O=C(NC1CCS(=O)(=O)CC1)[C@@H]1CC[C@@H]2CN1C(=O)N2OS(=O)(=O)O` [Example 27]: the IC50 was 150 nM on KPC-2 (K. pneumoniae) (setting [1]) and 9.5 nM on AmpC (P. aeruginosa) (setting [2]).
For `O=C(N[C@@H]1CCNC[C@@H]1F)[C@@H]1CC[C@@H]2CN1C(=O)N2OS(=O)(=O)O` [Example 25], the 50% inhibitory concentration (IC50) was determined as 270 nM on KPC-2 (K. pneumoniae) (setting [1]) and 20 nM against AmpC (P. aeruginosa).
In the case of `O=C(N[C@@H]1CNC[C@H]1O)[C@@H]1CC[C@@H]2CN1C(=O)N2OS(=O)(=O)O` [Example 29], the 50% inhibitory concentration (IC50) was determined as 250 nM at KPC-2 (K. pneumoniae) (setting [1]) and 2500 nM at AmpC (P. aeruginosa) (setting [2]).
Consider `O=C(O[C@@H]1CNC[C@@H]1F)[C@@H]1CC[C@@H]2CN1C(=O)N2OS(=O)(=O)O` [Example 103], for which the IC50 on KPC-2 (K. pneumoniae) (setting [1]) was 3 nM; on AmpC (P. aeruginosa), 39 nM.
As to `O=C(N[C@@H]1CCCNC[C@@H]1F)[C@@H]1CC[C@@H]2CN1C(=O)N2OS(=O)(=O)O` [Example 35], the IC50 on KPC-2 (K. pneumoniae) (setting [1]) was determined as 150 nM; on AmpC (P. aeruginosa) (setting [2]), 13 nM.
For `O=C(N[C@@H]1CNC[C@@H]1O)[C@@H]1CC[C@@H]2CN1C(=O)N2OS(=O)(=O)O` [Example 30], the figures for the half-maximal inhibitory concentration (IC50) at KPC-2 (K. pneumoniae) (setting [1]) and at AmpC (P. aeruginosa) (setting [2]) were 520 nM and 2250 nM, respectively.
Consider `O=C(OC1CNC1)[C@@H]1CC[C@@H]2CN1C(=O)N2OS(=O)(=O)O` [Example 96], for which the concentration for half-maximal inhibition (IC50) on KPC-2 (K. pneumoniae) (setting [1]) worked out at 18 nM; on AmpC (P. aeruginosa) (setting [2]), 600 nM.
Consider `O=C(NC1C2CNCC21)[C@@H]1CC[C@@H]2CN1C(=O)N2OS(=O)(=O)O` (stereo partly shown) [Example 47], for which the IC50 turned out to be 10000 nM at KPC-2 (K. pneumoniae) (setting [1]) and 720 nM at AmpC (P. aeruginosa) (setting [2]).
In the case of `O=C(O[C@H]1CNCC[C@@H]1F)[C@@H]1CC[C@@H]2CN1C(=O)N2OS(=O)(=O)O` [Example 101], the figures for the 50% inhibitory concentration (IC50) at KPC-2 (K. pneumoniae) (setting [1]) and at AmpC (P. aeruginosa) were 15 nM and 81 nM, respectively.
With `CN1CCC(NC(=O)[C@@H]2CC[C@@H]3CN2C(=O)N3OS(=O)(=O)O)CC1` [Example 23], the IC50 at KPC-2 (K. pneumoniae) (setting [1]) came to 240 nM; at AmpC (P. aeruginosa) (setting [2]) it was 500 nM.
Consider `O=C(Nc1ccc(CN2CCCC2)cc1)[C@@H]1CC[C@@H]2CN1C(=O)N2OS(=O)(=O)O` [Example 63], for which the 50% inhibitory concentration (IC50) was determined as 85 nM at KPC-2 (K. pneumoniae) (setting [1]) and 22 nM on AmpC (P. aeruginosa) (setting [2]).
Turning to `O=C(NC1CNC1)[C@@H]1CC[C@@H]2CN1C(=O)N2OS(=O)(=O)O` [Example 20], the IC50 stood at 17 nM at KPC-2 (K. pneumoniae) (setting [1]) and 1000 nM at AmpC (P. aeruginosa) (setting [2]).
For the compound `NCc1cccc(NC(=O)[C@@H]2CC[C@@H]3CN2C(=O)N3OS(=O)(=O)O)c1` [Example 58], the results for the half-inhibitory concentration (IC50) at KPC-2 (K. pneumoniae) (setting [1]) and at AmpC (P. aeruginosa) were 104 nM and 34 nM, respectively.
As to `O=C(O[C@H]1CNCC[C@H]1F)[C@@H]1CC[C@@H]2CN1C(=O)N2OS(=O)(=O)O` [Example 102], the half-maximal inhibitory concentration (IC50) was 4 nM on KPC-2 (K. pneumoniae) (setting [1]) and 76 nM on AmpC (P. aeruginosa).
In the case of `NC(=O)c1ccc(NC(=O)[C@@H]2CC[C@@H]3CN2C(=O)N3OS(=O)(=O)O)cc1` [Example 68], the concentration for half-maximal inhibition (IC50) on KPC-2 (K. pneumoniae) (setting [1]) was 30 nM; at AmpC (P. aeruginosa) (setting [2]) it was 7 nM.
For `O=C(NCC1CCCCN1)[C@@H]1CC[C@@H]2CN1C(=O)N2OS(=O)(=O)O` (stereo partly shown) [Example 39], the concentration for half-maximal inhibition (IC50) at KPC-2 (K. pneumoniae) (setting [1]) worked out at 190 nM; on AmpC (P. aeruginosa) (setting [2]) it was 530 nM.
Turning to `O=C([C@@H]1CC[C@@H]2CN1C(=O)N2OS(=O)(=O)O)N1CCNCC1` [Example 51], the results for the 50% inhibitory concentration (IC50) at KPC-2 (K. pneumoniae) (setting [1]) and on AmpC (P. aeruginosa) (setting [2]) were 520 nM and 2200 nM, respectively.
Regarding `CC(=O)Oc1ccc(C(=O)NCCOC(=O)[C@@H]2CC[C@@H]3CN2C(=O)N3OS(=O)(=O)O)cc1OC(C)=O` [Example 116], the concentration for half-maximal inhibition (IC50) at KPC-2 (K. pneumoniae) (setting [1]) was found to be 70 nM; at AmpC (P. aeruginosa) (setting [2]), 440 nM.
As for `O=C(O[C@H]1CNOC1)[C@@H]1CC[C@@H]2CN1C(=O)N2OS(=O)(=O)O` [Example 107], the results for the half-maximal inhibitory concentration (IC50) on KPC-2 (K. pneumoniae) (setting [1]) and on AmpC (P. aeruginosa) (setting [2]) were 11 nM and 39 nM, respectively.
For `O=C(Nc1ccc2c(c1)CCN2)[C@@H]1CC[C@@H]2CN1C(=O)N2OS(=O)(=O)O` [Example 66] the same measures were 41 nM and 56 nM.
As to `CNCc1cccc(NC(=O)[C@@H]2CC[C@@H]3CN2C(=O)N3OS(=O)(=O)O)c1` [Example 61], the IC50 was 78 nM at KPC-2 (K. pneumoniae) (setting [1]) and 22 nM against AmpC (P. aeruginosa).
On to `O=C(Nc1ccc2c(c1)CNC2)[C@@H]1CC[C@@H]2CN1C(=O)N2OS(=O)(=O)O` [Example 65], for which the IC50 amounted to 60 nM at KPC-2 (K. pneumoniae) (setting [1]) and 16 nM on AmpC (P. aeruginosa) (setting [2]).
The corresponding values for `NCc1ccc(OC(=O)[C@@H]2CC[C@@H]3CN2C(=O)N3OS(=O)(=O)O)cc1` [Example 115] are 2 nM and 24 nM.
Regarding `O=C(Nc1ccnc(N2CCNCC2)n1)[C@@H]1CC[C@@H]2CN1C(=O)N2OS(=O)(=O)O` [Example 85], the results for the half-maximal inhibitory concentration (IC50) at KPC-2 (K. pneumoniae) (setting [1]) and at AmpC (P. aeruginosa) (setting [2]) were 20 nM and 260 nM, respectively.
On to `O=C(N[C@H]1CCNC[C@@H]1F)[C@@H]1CC[C@@H]2CN1C(=O)N2OS(=O)(=O)O` [Example 24], for which the half-maximal inhibitory concentration (IC50) at KPC-2 (K. pneumoniae) (setting [1]) came to 90 nM; on AmpC (P. aeruginosa), 110 nM.
For the compound `O=C(NC[C@@H]1CNCCCO1)[C@@H]1CC[C@@H]2CN1C(=O)N2OS(=O)(=O)O` [Example 42], the IC50 against KPC-2 (K. pneumoniae) (K.p. KPC-2 IC50, Table 3) was 110 nM; against AmpC (P. aeruginosa) it was 100 nM.

(Values after patent US8487093B2, “β-lactamase inhibitors” (Merck Sharp & Dohme Corp., priority 2008, dated 2013).)
